Experiment [1] is described as follows: Inhibition of HCV genotype 1a NS5A polymerase infected in human HuH7 replicon cells by luciferase reporter gene assay. A general note: Replicon systems follow genome replication, usually without infectious particles.
A short description of experiment [2]: Inhibition of HCV genotype 1b NS5B polymerase infected in human HuH7 replicon cells by luciferase reporter gene assay.
Experiment [3] in a line: Inhibition of HCV genotype 1a NS5A polymerase L31V/Y93H double mutant infected in human HuH7 replicon cells by luciferase reporter gene assay.

From BindingDB's records for doi:10.1016/j.bmcl.2018.01.029 (Presidio Pharmaceuticals, 2018) come the findings set out here.

The term EC50 denotes the concentration that produces a half-maximal response. A lower EC50 goes with greater potency. For `CNC(=O)c1c(-c2ccc(F)cc2)oc2cc3c(cc12)C(C)OCCN3S(C)(=O)=O` (centres undefined), the values for the EC50 in experiment [1], in experiment [2] and in experiment [3] were 28 nM, 11 nM and 21 nM, respectively. As to `CNC(=O)c1c(-c2ccc(F)cc2)oc2cc3c(cc12)[C@@H](C)OC1(CC1)CN3S(C)(=O)=O`, the EC50 in experiment [1] is above 2000 nM; in experiment [2], 666 nM. Regarding `CNC(=O)c1c(-c2ccc(F)cc2)oc2cc3c(cc12)CCCCN3C(C)=O`, the EC50 in experiment [1] and in experiment [3] was above 2000 nM each time. Regarding `CNC(=O)c1c(-c2ccc(F)cc2)oc2cc3c(cc12)[C@H](C)N(C)C(=O)CN3S(C)(=O)=O`, the figures for the EC50 in experiment [1] and in experiment [2] were 102 nM and 13 nM, respectively.

For the molecule `CNC(=O)c1c(-c2ccc(F)cc2)oc2cc3c(cc12)C(O)CCCN3S(C)(=O)=O` (centres undefined), the EC50 is 107 nM in experiment [2] and 730 nM in experiment [3]. As to `CNC(=O)c1c(-c2ccc(F)cc2)oc2cc3c(cc12)[C@H](C)O[C@@H](CO)CN3S(C)(=O)=O`, the EC50 in experiment [1] was 64 nM; in experiment [2] it was 13 nM. For `CNC(=O)c1c2cc3c(cc2nn1-c1ccc(F)cc1)N(S(C)(=O)=O)CCCC3C` (centres undefined), the EC50 in experiment [1] was above 2000 nM.

Turning to `CNC(=O)c1c(-c2ccc(F)cc2)oc2cc3c(cc12)[C@@H](C)OCCN3S(C)(=O)=O`, the EC50 stood at 686 nM in experiment [2] and 624 nM in experiment [3]. Turning to `CNC(=O)c1c(-c2ccc(F)cc2)oc2cc3c(cc12)C(=O)CCCN3S(C)(=O)=O`, the EC50 was 78 nM in experiment [2] and 318 nM in experiment [3].

On to `CNC(=O)c1c(-c2ccc(F)cc2)oc2cc3c(cc12)CCCCN3S(=O)(=O)C1CC1`, for which the EC50 in experiment [1] is 335 nM; in experiment [2], 73 nM; in experiment [3] it was 423 nM. In the case of `CNC(=O)c1c(-c2ccc(F)cc2)oc2cc3c(cc12)[C@@H](C)O[C@H](CO)CN3S(C)(=O)=O`, the EC50 is 554 nM in experiment [1] and 69 nM in experiment [2]. The matching figures for `CNC(=O)c1c(-c2ccc(F)cc2)oc2cc3c(cc12)C(C)n1nnnc1CN3S(C)(=O)=O` (centres undefined): 33 nM and 8 nM. Turning to `CNC(=O)c1c(-c2ccc(F)cc2)oc2cc3c(cc12)[C@H](C)CCCN3S(C)(=O)=O`, the figures for the EC50 in experiment [1], in experiment [2] and in experiment [3] were 10 nM, 4 nM and 9 nM, respectively. As to `CS(=O)(=O)NC(=O)c1c(-c2ccc(F)cc2)oc2cc3c(cc12)CCCCN3S(C)(=O)=O`, the EC50 in experiment [3] is above 2000 nM. Molecule `CS(=O)(=O)N1CCCCc2cc3c(C(=O)NC4CC4)c(-c4ccc(F)cc4)oc3cc21` gave an EC50 in experiment [3] above 2000 nM.

The molecule `CN(C)C(=O)c1c(-c2ccc(F)cc2)oc2cc3c(cc12)CCCCN3S(C)(=O)=O` gave an EC50 in experiment [3] above 2000 nM. On the same count and under the same terms, to `CS(=O)(=O)N1CCCCc2cc3c(C(N)=O)c(-c4ccc(F)cc4)oc3cc21` belongs above 2000 nM.

Consider `CNC(=O)c1c(-c2ccc(F)cc2)nc2cc3c(cn12)C(C)CCCN3S(C)(=O)=O` (centres undefined), for which the EC50 in experiment [2] is 182 nM; in experiment [3] it was 801 nM. In the case of `CNC(=O)c1c(-c2ccc(Oc3ccc(F)cc3)cc2)oc2cc3c(cc12)C(C)CCCN3S(C)(=O)=O` (centres undefined), the EC50 in experiment [2] was found to be 14 nM; in experiment [3], 71 nM. The like results for `CNC(=O)c1c(-c2ccc(F)cc2F)oc2cc3c(cc12)C(C)CCCN3S(C)(=O)=O` (centres undefined) were, in that order, 8 nM and 15 nM. In the case of `CNC(=O)c1c(-c2ccccc2F)oc2cc3c(cc12)C(C)CCCN3S(C)(=O)=O` (centres undefined), the EC50 in experiment [2] came to 7 nM; in experiment [3], 11 nM. For `CNC(=O)c1c(-c2ccc(F)cc2)oc2cc3c(cc12)[C@@H](C)O[C@H](CS(C)(=O)=O)CN3S(C)(=O)=O`, the figures for the EC50 in experiment [1] and in experiment [2] were 100 nM and 24 nM, respectively. Turning to `CNC(=O)c1c(-c2ccc(F)cc2)oc2cc3c(cc12)[C@H](C)OC1(CC1)CN3S(C)(=O)=O`, the figures for the EC50 in experiment [1] and in experiment [2] were 93 nM and 13 nM, respectively. With `CNC(=O)c1c(-c2ccc(F)cc2)oc2cc3c(cc12)C(C)OC1(CC1)CN3S(C)(=O)=O` (centres undefined), the EC50 in experiment [1] was 130 nM; in experiment [2], 19 nM. Molecule `CNC(=O)c1c(-c2ccc(F)cc2)oc2cc3c(cc12)[C@@H](C)n1nncc1CN3S(C)(=O)=O` displayed an EC50 in experiment [2] of 38 nM. Consider `CNC(=O)c1c(-c2ccc(F)cc2)oc2cc3c(cc12)C(C)n1ccnc1CN3S(C)(=O)=O` (centres undefined), for which the EC50 in experiment [1] was determined as 26 nM; in experiment [2] it was 74 nM. The matching figures for `CNC(=O)c1c(-c2ccc(F)cc2)oc2cc3c(cc12)[C@@H](C)N(C)C(=O)CN3S(C)(=O)=O`: 688 nM and 59 nM. For the molecule `CNC(=O)c1c(-c2ccc(F)cc2)oc2cc3c(cc12)[C@@H](C)NC(=O)CN3S(C)(=O)=O`, the EC50 in experiment [1] was 1800 nM; in experiment [2] it was 586 nM. For the molecule `CNC(=O)c1c(-c2ccc(F)cc2)oc2cc3c(cc12)C(C)NC(=O)CN3S(C)(=O)=O` (centres undefined), the EC50 is 19 nM in experiment [1], 15 nM in experiment [2] and 14 nM in experiment [3]. Take `CNC(=O)c1c(-c2ccc(F)cc2)oc2cc3c(cc12)C(C)NCCN3S(C)(=O)=O` (centres undefined): the values for the EC50 in experiment [2] and in experiment [3] were 43 nM and 265 nM, respectively. The like results for `CNC(=O)c1c(-c2ccc(F)cc2)oc2cc3c(cc12)[C@H](C)OCCN3S(C)(=O)=O` were, in that order, 3 nM and 9 nM. The like results for `CNC(=O)c1c(-c2ccc(F)cc2)oc2cc3c(cc12)[C@H]1C[C@H]1CCN3S(C)(=O)=O` were, in that order, above 2000 nM and above 2000 nM. Regarding `CNC(=O)c1c(-c2ccc(F)cc2)oc2cc3c(cc12)[C@@H]1C[C@@H]1CCN3S(C)(=O)=O`, the concentration giving a half-maximal response (EC50) in experiment [2] was 7 nM; in experiment [3], 25 nM.

For the molecule `CNC(=O)c1c(-c2ccc(F)cc2)oc2cc3c(cc12)C1(CCCN3S(C)(=O)=O)CC1`, the results for the EC50 in experiment [2] and in experiment [3] were 20 nM and 118 nM, respectively. Take `CNC(=O)c1c(-c2ccc(F)cc2)oc2cc3c(cc12)[C@@H](C)CCCN3S(C)(=O)=O`: the results for the EC50 in experiment [2] and in experiment [3] were 46 nM and 89 nM, respectively. Turning to `CNC(=O)c1c(-c2ccc(F)cc2)oc2cc3c(cc12)C(C)CCCN3S(C)(=O)=O` (centres undefined), the results for the EC50 in experiment [2] and in experiment [3] were 3 nM and 10 nM, respectively.

On to `C=C1CCCN(S(C)(=O)=O)c2cc3oc(-c4ccc(F)cc4)c(C(=O)NC)c3cc21`, for which the EC50 in experiment [2] was found to be 26 nM; in experiment [3], 106 nM. The matching figures for `CNC(=O)c1c(-c2ccc(F)cc2)oc2cc3c(cc12)CCCCN3C(=O)OC`: 164 nM and 722 nM. As to `CS(=O)(=O)N1CCCCc2cc3c(-c4ncn[nH]4)c(-c4ccc(F)cc4)oc3cc21`, a half-maximal response in experiment [2] (EC50) required 850 nM. Consider `CN(O)C(=O)c1c(-c2ccc(F)cc2)oc2cc3c(cc12)CCCCN3S(C)(=O)=O`, for which the EC50 in experiment [2] was 298 nM; in experiment [3] it was above 2000 nM.

As for `CONC(=O)c1c(-c2ccc(F)cc2)oc2cc3c(cc12)CCCCN3S(C)(=O)=O`, the EC50 in experiment [2] worked out at 31 nM; in experiment [3], 90 nM.

`CNC(=O)c1c(-c2ccc(F)cc2)oc2cc3c(cc12)CCCCCCN3S(C)(=O)=O` had an EC50 in experiment [2] of 26 nM. The same measure, in the same setting: to `CNC(=O)c1c(-c2ccc(F)cc2)oc2cc3c(cc12)CCCCCN3S(C)(=O)=O` belongs 5 nM; to `CNC(=O)c1c(-c2ccc(F)cc2)oc2cc3c(cc12)CCCN3S(C)(=O)=O`, 451 nM. The same measure, in the same setting: to `CNC(=O)c1c(-c2ccc(F)cc2)oc2cc3c(cc12)CCN3S(C)(=O)=O` belongs 304 nM. Still for that read-out and setting: for `CNC(=O)c1c(-c2ccc(F)cc2)oc2cc3c(cc12)C(C)n1nncc1CN3S(C)(=O)=O` (centres undefined) the value was 6 nM. In the case of `CNC(=O)c1c(-c2ccc(F)cc2OC)oc2cc3c(cc12)C(C)CCCN3S(C)(=O)=O` (centres undefined), the EC50 in experiment [2] is 56 nM; in experiment [3], above 2000 nM. `CCNC(=O)c1c(-c2ccc(F)cc2)oc2cc3c(cc12)CCCCN3S(C)(=O)=O` yielded an EC50 in experiment [1] above 2000 nM.

In experiment [2], `CNC(=O)c1c(-c2ccc(F)cc2)oc2cc3c(cc12)[C@H](C)NC(=O)CN3S(C)(=O)=O` showed an EC50 of 5 nM. For the molecule `CNC(=O)c1c(-c2ccc(F)cc2)oc2cc3c(cc12)C(C)N(C)C(=O)CN3S(C)(=O)=O` (centres undefined), the EC50 in experiment [1] turned out to be 180 nM; in experiment [2], 17 nM.

For the molecule `CNC(=O)c1c(-c2ccc(F)cc2)oc2cc3c(cc12)[C@@H](C)O[C@@H](CO)CN3S(C)(=O)=O`, the EC50 in experiment [2] was 1470 nM. Regarding `CNC(=O)c1c(-c2ccc(F)cc2)oc2cc3c(cc12)[C@@H](C)O[C@@H](CS(C)(=O)=O)CN3S(C)(=O)=O`, the EC50 in experiment [1] was above 2000 nM; in experiment [2], 1210 nM. The like results for `CNC(=O)c1c(-c2ccc(F)cc2)oc2cc3c(cc12)[C@H](C)O[C@@H](CS(C)(=O)=O)CN3S(C)(=O)=O` were, in that order, 57 nM and 13 nM. As for `CNC(=O)c1c(-c2ccc(F)cc2)oc2cc3c(cc12)C(C)N(C)CCN3S(C)(=O)=O` (centres undefined), the EC50 in experiment [2] is 14 nM; in experiment [3] it was 50 nM.

`CNC(=O)c1c(-c2ccc(F)cc2)oc2cc3c(cc12)C1CC1CCN3S(C)(=O)=O` (centres undefined): the EC50 turned out to be 35 nM in experiment [1], 9 nM in experiment [2] and 44 nM in experiment [3]. As to `CNC(=O)c1c(-c2ccc(F)cc2)oc2cc3c(cc12)C(C)=CCCN3S(C)(=O)=O`, the results for the EC50 in experiment [2] and in experiment [3] were 16 nM and 70 nM, respectively. Turning to `CS(=O)(=O)N1CCCCc2cc3c(-c4ncc[nH]4)c(-c4ccc(F)cc4)oc3cc21`, the EC50 came to 33 nM in experiment [1], 5 nM in experiment [2] and 59 nM in experiment [3]. `CS(=O)(=O)N1CCCCc2cc3c(C4=NCCN4)c(-c4ccc(F)cc4)oc3cc21` gave an EC50 in experiment [3] above 2000 nM. On to `CNC(=O)c1c(-c2ccc(F)cc2)nn2cc3c(cc12)C(C)CCCN3S(C)(=O)=O` (centres undefined), for which the EC50 in experiment [2] is 109 nM; in experiment [3], 523 nM. `CNC(=O)c1c(-c2ccc(F)cc2)oc2cc3c(cc12)CCCCN3S(C)(=O)=O`: the EC50 amounted to 17 nM in experiment [2] and 83 nM in experiment [3]. Regarding `CNC(=O)c1c(-c2ccc(F)cc2)oc2cc3c(cc12)C(C)OC(C)CN3S(C)(=O)=O` (centres undefined), the values for the EC50 in experiment [1] and in experiment [2] were 33 nM and 8 nM, respectively. As to `CS(=O)(=O)N1CCCCc2cc3c(C(=O)NC#N)c(-c4ccc(F)cc4)oc3cc21`, the EC50 in experiment [3] is above 2000 nM.

In the case of `CNC(=O)c1c(-c2ccc(F)cc2)oc2cc3c(cc12)[C@H](C)n1nncc1CN3S(C)(=O)=O`, the EC50 in experiment [2] is 3 nM.
